{"source": "BindingDB's records for doi:10.1111/j.1476-5381.1996.tb15208.x", "about": "(Smithkline Beecham Pharmaceuticals, 1996)", "key": {"[1]": {"target": "5-hydroxytryptamine receptor 1D (Cavia porcellus, UniProt Q60484)", "sequence (Q60484 whole entry)": "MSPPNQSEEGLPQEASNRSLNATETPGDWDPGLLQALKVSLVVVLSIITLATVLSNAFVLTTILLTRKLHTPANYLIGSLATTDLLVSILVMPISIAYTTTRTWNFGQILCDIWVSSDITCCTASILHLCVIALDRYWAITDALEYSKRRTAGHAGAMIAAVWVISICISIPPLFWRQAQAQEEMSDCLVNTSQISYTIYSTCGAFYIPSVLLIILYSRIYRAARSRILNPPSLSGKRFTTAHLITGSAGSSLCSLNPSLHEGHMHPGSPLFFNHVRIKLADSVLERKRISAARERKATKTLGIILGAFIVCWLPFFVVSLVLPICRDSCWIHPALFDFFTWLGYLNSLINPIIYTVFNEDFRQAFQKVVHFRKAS"}, "[2]": {"target": "T1, 5-hydroxytryptamine receptor 1F (Homo sapiens, UniProt P30939)", "T1 sequence (P30939 whole entry)": "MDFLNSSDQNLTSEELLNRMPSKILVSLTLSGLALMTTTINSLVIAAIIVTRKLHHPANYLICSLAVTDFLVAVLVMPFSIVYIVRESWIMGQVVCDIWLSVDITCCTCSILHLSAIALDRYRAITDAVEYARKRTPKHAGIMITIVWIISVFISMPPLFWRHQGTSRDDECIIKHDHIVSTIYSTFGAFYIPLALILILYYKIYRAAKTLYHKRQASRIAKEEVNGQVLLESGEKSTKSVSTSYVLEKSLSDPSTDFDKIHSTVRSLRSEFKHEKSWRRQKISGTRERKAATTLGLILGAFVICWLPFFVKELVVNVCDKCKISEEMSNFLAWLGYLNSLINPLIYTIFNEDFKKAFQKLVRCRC"}, "Histamine H1 receptor": {"target": "Histamine H1 receptor (Cavia porcellus, UniProt P31389)", "sequence (P31389 whole entry)": "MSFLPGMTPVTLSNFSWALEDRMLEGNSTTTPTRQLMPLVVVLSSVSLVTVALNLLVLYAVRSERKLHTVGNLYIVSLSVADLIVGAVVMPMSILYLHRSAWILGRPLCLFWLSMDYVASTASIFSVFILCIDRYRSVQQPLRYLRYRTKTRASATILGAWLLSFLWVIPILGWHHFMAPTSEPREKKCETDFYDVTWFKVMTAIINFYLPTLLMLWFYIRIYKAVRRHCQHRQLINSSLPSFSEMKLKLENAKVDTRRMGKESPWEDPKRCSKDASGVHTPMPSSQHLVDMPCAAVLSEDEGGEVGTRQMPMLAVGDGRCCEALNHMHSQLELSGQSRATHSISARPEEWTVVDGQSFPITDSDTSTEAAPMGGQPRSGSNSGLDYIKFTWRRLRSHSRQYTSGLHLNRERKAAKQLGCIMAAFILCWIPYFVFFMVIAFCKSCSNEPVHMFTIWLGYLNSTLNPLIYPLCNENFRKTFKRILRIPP"}, "[3]": {"target": "T2, 5-hydroxytryptamine receptor 3A (Rattus norvegicus, UniProt P35563)", "T2 sequence (P35563 whole entry)": "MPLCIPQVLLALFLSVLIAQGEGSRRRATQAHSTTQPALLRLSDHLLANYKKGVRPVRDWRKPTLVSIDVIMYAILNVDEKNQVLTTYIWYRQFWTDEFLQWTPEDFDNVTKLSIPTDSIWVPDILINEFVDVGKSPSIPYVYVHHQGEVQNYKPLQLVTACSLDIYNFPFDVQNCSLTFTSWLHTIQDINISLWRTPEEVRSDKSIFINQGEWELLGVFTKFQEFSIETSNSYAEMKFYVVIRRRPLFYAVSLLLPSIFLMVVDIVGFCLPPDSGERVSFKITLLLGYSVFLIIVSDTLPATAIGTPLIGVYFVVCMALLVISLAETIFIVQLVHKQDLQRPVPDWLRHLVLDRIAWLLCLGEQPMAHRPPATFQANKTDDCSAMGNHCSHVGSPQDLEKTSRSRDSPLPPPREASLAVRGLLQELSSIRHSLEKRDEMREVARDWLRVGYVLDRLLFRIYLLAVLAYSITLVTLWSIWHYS"}, "[4]": {"target": "5-hydroxytryptamine receptor 2A (Homo sapiens, UniProt P28223)", "sequence (P28223 whole entry)": "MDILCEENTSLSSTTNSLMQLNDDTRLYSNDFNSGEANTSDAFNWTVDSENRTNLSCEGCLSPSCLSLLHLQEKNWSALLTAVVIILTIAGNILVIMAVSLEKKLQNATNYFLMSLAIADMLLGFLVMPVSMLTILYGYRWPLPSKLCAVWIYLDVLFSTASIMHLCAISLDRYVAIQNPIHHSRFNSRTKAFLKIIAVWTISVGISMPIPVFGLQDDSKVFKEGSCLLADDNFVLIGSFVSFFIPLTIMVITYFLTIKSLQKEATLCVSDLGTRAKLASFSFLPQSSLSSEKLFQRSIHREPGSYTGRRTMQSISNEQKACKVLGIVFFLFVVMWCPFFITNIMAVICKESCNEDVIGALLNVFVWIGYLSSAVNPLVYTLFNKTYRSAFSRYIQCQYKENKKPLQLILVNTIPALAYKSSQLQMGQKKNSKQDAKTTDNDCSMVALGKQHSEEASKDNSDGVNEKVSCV"}, "[5]": {"target": "T3, Alpha-1A adrenergic receptor (Rattus norvegicus, UniProt P43140)", "T3 sequence (P43140 whole entry)": "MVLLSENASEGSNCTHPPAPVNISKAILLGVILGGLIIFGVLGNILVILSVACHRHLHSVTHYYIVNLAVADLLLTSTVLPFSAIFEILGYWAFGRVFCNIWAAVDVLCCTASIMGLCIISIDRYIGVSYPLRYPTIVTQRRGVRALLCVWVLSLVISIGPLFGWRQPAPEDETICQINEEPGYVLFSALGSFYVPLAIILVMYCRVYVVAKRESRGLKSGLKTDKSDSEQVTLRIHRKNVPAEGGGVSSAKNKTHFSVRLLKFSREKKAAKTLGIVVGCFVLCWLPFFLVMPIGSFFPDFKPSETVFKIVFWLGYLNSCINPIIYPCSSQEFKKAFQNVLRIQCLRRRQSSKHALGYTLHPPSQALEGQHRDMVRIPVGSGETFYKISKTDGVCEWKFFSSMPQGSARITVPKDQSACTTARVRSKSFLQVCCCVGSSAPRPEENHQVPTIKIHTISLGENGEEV"}, "[6]": {"target": "5-hydroxytryptamine receptor 7 (Homo sapiens, UniProt P34969)", "sequence (P34969 whole entry)": "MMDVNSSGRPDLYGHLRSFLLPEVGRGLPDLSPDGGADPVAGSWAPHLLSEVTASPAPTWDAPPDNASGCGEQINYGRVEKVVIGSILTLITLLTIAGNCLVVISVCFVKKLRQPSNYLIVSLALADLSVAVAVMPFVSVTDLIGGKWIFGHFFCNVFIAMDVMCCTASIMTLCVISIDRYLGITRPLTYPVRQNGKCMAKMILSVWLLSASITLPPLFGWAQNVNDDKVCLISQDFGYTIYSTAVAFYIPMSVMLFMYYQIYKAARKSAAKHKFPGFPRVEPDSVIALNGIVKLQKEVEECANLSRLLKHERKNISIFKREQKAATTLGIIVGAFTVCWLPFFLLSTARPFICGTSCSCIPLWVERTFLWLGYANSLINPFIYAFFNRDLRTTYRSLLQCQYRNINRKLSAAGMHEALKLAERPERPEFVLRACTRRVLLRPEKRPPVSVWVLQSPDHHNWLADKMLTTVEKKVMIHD"}, "Adenosine receptor A1": {"target": "T4, Adenosine receptor A1 (Rattus norvegicus, UniProt P25099)", "T4 sequence (P25099 whole entry)": "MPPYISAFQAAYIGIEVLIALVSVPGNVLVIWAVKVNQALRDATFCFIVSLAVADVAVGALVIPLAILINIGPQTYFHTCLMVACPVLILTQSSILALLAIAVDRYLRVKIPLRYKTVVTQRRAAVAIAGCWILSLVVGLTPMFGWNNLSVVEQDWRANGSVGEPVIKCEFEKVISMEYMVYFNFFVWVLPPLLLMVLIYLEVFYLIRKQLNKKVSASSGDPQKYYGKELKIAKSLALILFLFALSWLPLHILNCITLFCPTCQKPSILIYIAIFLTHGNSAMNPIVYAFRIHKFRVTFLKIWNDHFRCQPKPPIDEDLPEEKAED"}, "[7]": {"target": "Gamma-aminobutyric acid receptor subunit alpha-1 (Rattus norvegicus, UniProt P62813)", "sequence (P62813 whole entry)": "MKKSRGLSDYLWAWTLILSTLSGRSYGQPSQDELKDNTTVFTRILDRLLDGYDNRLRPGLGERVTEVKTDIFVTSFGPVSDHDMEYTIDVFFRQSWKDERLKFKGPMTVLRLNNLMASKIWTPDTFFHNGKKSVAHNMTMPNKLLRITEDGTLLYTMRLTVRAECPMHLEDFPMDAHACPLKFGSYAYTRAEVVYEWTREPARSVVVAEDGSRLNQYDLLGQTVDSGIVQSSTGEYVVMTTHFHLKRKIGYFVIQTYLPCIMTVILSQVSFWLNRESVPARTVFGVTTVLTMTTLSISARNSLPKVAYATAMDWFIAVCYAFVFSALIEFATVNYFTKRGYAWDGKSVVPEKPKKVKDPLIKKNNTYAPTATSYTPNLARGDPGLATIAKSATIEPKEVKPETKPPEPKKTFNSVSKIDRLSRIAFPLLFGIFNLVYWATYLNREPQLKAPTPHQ"}, "[8]": {"target": "5-hydroxytryptamine receptor 2B (Rattus norvegicus, UniProt P30994)", "sequence (P30994 whole entry)": "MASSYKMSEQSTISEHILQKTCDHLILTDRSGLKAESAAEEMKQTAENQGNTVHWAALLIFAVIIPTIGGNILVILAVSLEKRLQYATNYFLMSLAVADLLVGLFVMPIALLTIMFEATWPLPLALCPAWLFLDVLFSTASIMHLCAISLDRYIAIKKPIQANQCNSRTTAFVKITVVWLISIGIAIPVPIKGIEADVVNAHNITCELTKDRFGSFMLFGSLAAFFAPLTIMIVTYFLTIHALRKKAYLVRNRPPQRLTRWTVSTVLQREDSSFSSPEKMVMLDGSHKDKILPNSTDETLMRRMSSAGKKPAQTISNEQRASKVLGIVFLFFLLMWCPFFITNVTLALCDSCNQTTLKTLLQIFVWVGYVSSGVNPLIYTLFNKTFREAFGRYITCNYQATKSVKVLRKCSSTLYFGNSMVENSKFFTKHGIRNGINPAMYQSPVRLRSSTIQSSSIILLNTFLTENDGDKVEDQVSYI"}, "D(4) dopamine receptor": {"target": "T5, D(4) dopamine receptor (Homo sapiens, UniProt P21917)", "T5 sequence (P21917 whole entry)": "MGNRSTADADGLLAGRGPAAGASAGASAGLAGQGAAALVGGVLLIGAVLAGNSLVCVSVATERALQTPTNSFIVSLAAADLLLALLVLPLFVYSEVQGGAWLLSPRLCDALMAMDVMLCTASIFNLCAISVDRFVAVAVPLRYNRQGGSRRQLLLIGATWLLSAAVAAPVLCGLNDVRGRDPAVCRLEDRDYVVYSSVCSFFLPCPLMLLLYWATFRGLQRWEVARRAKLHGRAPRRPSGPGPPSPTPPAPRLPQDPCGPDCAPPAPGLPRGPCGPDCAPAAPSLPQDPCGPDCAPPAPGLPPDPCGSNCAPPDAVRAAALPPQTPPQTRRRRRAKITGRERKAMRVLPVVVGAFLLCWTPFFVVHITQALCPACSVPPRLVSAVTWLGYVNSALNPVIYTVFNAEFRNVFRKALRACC"}, "D(2) dopamine receptor": {"target": "D(2) dopamine receptor (Homo sapiens, UniProt P14416)", "sequence (P14416 whole entry)": "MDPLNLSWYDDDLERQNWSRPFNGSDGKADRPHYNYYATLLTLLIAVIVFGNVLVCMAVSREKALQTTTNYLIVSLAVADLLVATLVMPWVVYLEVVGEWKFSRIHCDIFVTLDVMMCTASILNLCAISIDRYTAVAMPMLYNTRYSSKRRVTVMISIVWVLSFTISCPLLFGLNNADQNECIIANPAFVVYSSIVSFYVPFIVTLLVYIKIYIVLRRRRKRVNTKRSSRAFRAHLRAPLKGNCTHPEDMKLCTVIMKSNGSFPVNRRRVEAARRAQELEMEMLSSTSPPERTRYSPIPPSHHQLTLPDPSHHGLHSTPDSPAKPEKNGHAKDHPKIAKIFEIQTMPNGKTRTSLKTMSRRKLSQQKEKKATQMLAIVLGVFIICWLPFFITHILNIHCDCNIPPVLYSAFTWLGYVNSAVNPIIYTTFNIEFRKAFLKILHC"}, "D(3) dopamine receptor": {"target": "D(3) dopamine receptor (Homo sapiens, UniProt P35462)", "sequence (P35462 as listed by the source)": "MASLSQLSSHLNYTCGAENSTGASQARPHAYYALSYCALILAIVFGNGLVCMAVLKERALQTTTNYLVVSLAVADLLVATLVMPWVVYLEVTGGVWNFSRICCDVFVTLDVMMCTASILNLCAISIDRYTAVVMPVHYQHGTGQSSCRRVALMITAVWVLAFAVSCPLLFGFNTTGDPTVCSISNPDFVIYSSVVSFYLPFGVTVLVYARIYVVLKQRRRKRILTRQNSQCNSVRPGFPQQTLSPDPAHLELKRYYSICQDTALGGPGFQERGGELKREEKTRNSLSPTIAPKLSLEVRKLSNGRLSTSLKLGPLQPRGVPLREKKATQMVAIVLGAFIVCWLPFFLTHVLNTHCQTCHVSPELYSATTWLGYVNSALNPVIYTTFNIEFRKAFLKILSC"}, "[9]": {"target": "5-hydroxytryptamine receptor 1E (Homo sapiens, UniProt P28566)", "sequence (P28566 whole entry)": "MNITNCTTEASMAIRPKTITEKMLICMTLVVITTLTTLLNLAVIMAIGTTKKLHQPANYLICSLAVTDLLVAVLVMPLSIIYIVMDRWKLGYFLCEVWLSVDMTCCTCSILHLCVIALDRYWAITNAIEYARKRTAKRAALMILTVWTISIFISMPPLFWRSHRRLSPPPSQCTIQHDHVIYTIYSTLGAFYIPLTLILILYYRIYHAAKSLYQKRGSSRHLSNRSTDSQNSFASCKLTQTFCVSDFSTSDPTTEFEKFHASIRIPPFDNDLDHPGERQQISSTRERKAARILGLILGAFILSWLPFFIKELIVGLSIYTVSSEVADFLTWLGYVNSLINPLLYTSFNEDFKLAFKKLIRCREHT"}}, "data": [{"smiles": "Cn1ccc2cc3c(cc21)CCN3C(=O)Nc1cccnc1", "values": [{"measurement": "Ki", "setting": "[1]", "result": 1, "unit": "µM"}, {"measurement": "Ki", "setting": "[2]", "result": 5.01, "unit": "µM"}, {"measurement": "Ki", "setting": "Histamine H1 receptor", "result": "> 10", "unit": "µM"}, {"measurement": "Ki", "setting": "[3]", "result": "> 10", "unit": "µM"}, {"measurement": "Ki", "setting": "[4]", "result": 1.66, "unit": "µM"}, {"measurement": "Ki", "setting": "[5]", "result": "> 10", "unit": "µM"}, {"measurement": "Ki", "setting": "[6]", "result": 1, "unit": "µM"}, {"measurement": "Ki", "setting": "Adenosine receptor A1", "result": "> 10", "unit": "µM"}, {"measurement": "Ki", "setting": "[7]", "result": "> 10", "unit": "µM"}, {"measurement": "Ki", "setting": "[8]", "result": 0.00129, "unit": "µM"}, {"measurement": "Ki", "setting": "D(4) dopamine receptor", "result": "> 10", "unit": "µM"}, {"measurement": "Ki", "setting": "D(2) dopamine receptor", "result": "> 10", "unit": "µM"}, {"measurement": "Ki", "setting": "D(3) dopamine receptor", "result": "> 10", "unit": "µM"}, {"measurement": "Ki", "setting": "[9]", "result": 5.01, "unit": "µM"}]}]}
